Results: patent US20250188079A1, “INHIBITING CYCLIC AMP-RESPONSIVE ELEMENT-BINDING PROTEIN (CREB)” (Forma Therapeutics, Inc., priority 2019, published 2025)

Target: CBP (Homo sapiens (Human), UniProt Q92793)
Assay: HTRF biochemical assay for CBP activity (TR-FRET, bromodomain)
Type: binding
Conditions: geometric mean, 10-point 3-fold dilution 33 μM to 1.7 nM, read-out: BROMO IC50 TRF TB CBP (μM gmean)
Method: Example 1: HTRF Biochemical Assay for CBP Activity
The assay was performed in a final volume of 6 μL in assay buffer containing 50 mM Hepes (pH 7.5, (0.5M Hepes, pH 7.5 solution; Teknova H1575)), 0.5 mM GSH, 0.01% BGG (0.22 p M filtered, Sigma, G7516-25G), 0.005% BSA (0.22 μM filtered, EMD Millipore Corporation, 126575) and 0.01% Triton X-100 (Sigma, T9284-10L). Nanoliter quantities of 10-point, 3-fold serial dilution in DMSO were pre-dispensed into 1536 assay plates (Corning, #3724BC) for a final test concentration of 33 μM to 1.7 nM, top to lowest dose, respectively. 3 μL of 2×Protein and 3 μL of 2×Peptide Ligand were added to assay plates (pre-stamped with compound). Plates were incubated for varying times at room temperature prior to measuring the signal. TR-FRET (Time-Resolved Fluorescence Resonance Energy Transfer) was measured on the PHERAstar (BMG, equipped with HTRF optic module [337/520/490]) or on the Envision (PerkinElmer, equipped with the TRF Laser unit, TRF dual mirror D400/D505 and emission filters M520 and M495). Data were reported as percent inhibition compared with control wells based on the following equation: % inh=1−((TR-FRET ratio−AveLow)/(AveHigh−AveLow)) where TR-FRET ratio=(Fluorescence at 520 nm/Fluorescence at 490 nm)*10000), AveLow=average TR-FRET ratio of no enzyme control (n=32), and AveHigh=average TR-FRET ratio of DMSO control (n=32). IC50 values were determined by curve fitting of the standard 4 parameter logistic fitting algorithm included in the Activity Base software package: IDBS XE Designer Model205. Data is fitted using the Levenburg Marquardt algorithm. As set forth in Table 2 below, an IC50 value of greater than or equal to 0.001 μM and less than or equal to 0.01 μM is marked “++++”; a value greater than 0.01 μM and less than or equal to 0.1 μM is marked “+++”; a value greater than 0.1 μM and less than or equal to 1 μM is marked “++”; and a value greater than 1 μM and less than 1000 μM is marked “+.” Compounds that were not tested in a particular assay are marked “NT.”

CBP, sequence (Q92793 1085-1192): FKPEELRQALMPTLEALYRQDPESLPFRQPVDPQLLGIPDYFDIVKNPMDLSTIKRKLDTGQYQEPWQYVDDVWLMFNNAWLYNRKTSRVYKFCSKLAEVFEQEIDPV

IC50 [µM]	Compound
0.1 to 1	COC(=O)N1CCc2ccc3c(nc([C@H]4CC[C@H](C(=O)O)CC4)n3[C@H](C)Cc3c(C)cccc3C)c2C1 [Compound 318]
0.001 to 0.01	COC(=O)N1CCc2ccc3c(nc([C@H]4CC[C@@](C)(C(=O)O)CC4)n3[C@@H](C)Cn3cc(Cl)cn3)c2C1 [Compound 41]
0.001 to 0.01	COC(=O)N1CCc2ccc3c(nc(N4CCCCC4)n3[C@@H](C)Cc3cccc(-c4nnn[nH]4)c3)c2C1 [Compound 108]
0.01 to 0.1	COC(=O)N1CCc2ccc3c(nc(-c4cccc([C@](C)(O)C(=O)O)c4)n3[C@@H](C)Cc3ccccc3)c2C1 [Compound 184]
0.1 to 1	COC(=O)N1CCc2ccc3c(nc(N4CCN(C(=O)C5COC5)CC4)n3[C@@H](C)Cc3ccccc3)c2C1 [Compound 337]
0.01 to 0.1	COC(=O)N1CCc2ccc3c(nc(-c4ccc(C(=O)O)c(F)c4)n3[C@H](C)Cc3ccccc3)c2C1 [Compound 280]
0.001 to 0.01	COC(=O)N1CCc2ccc3c(nc(C4CCN(S(N)(=O)=O)CC4)n3[C@@H](C)Cc3ccccc3)c2C1 [Compound 107]
0.001 to 0.01	COC(=O)N1CCc2ccc3c(nc([C@H]4CC[C@H](OC)CC4)n3C[C@@H](C(=O)O)c3ccccc3)c2C1 [Compound 123]
0.001 to 0.01	COC(=O)N1CCc2ccc3c(nc([C@H]4CC[C@H](S(=O)(=O)NC(C)=O)CC4)n3[C@@H](C)Cc3ccccc3)c2C1 [Compound 96]
0.001 to 0.01	COC(=O)N1CCc2ccc3c(nc(C4CCCCC4)n3C[C@H]3CC[C@H](C(=O)O)CC3)c2C1 [Compound 83]
0.01 to 0.1	COC(=O)N1CCc2ccc3c(nc(C4CCCCC4)n3C[C@H]3CCCC[C@@H]3C(=O)O)c2C1 [Compound 196]
0.001 to 0.01	COC(=O)N1CCc2ccc3c(nc(N4CCC[C@H](C(=O)O)C4)n3[C@@H](C)Cc3ccccc3)c2C1 [Compound 161]
0.01 to 0.1	COC(=O)N1CCc2ccc3c(nc([C@H]4CC[C@H](C(=O)O)CC4)n3[C@H](C)Cc3cc(F)cc(F)c3)c2C1 [Compound 253]
0.01 to 0.1	COC(=O)N1CCc2ccc3c(nc([C@H]4CC[C@H](C(=O)O)CC4)n3[C@H](C)C[C@H]3CCCOC3)c2C1 [Compound 275]
0.01 to 0.1	COC(=O)N1CCc2ccc3c(nc([C@@H]4CCC[C@@H](C(=O)O)C4)n3[C@H](C)Cc3ccccc3C)c2C1 (single isomer, unassigned) [Compound 284]
0.001 to 0.01	COC(=O)N1CCc2ccc3c(nc(-c4ccccn4)n3[C@@H](C)Cc3ccccc3)c2C1 [Compound 159]
0.001 to 0.01	(1R,3R)-3-[3-[(2R)-2-(3,4-difluorophenyl)propyl]-8-(methoxycarbonyl)-3H,6H,7H,8H,9H-imidazo[4,5-h]isoquinolin-2-yl]cyclohexane-1-carboxylic acid [Compound 28]
0.01 to 0.1	COC(=O)N1CCc2ccc3c(nc(C4CCCCC4)n3C[C@@H](C(=O)O)c3cc(F)c(C)cc3OC)c2C1 (single isomer, unassigned) [Compound 278]
0.001 to 0.01	COC(=O)N1CCc2ccc3c(nc(C4CCCCC4)n3CC(C(=O)O)C3CCCCC3)c2C1 (stereo not shown) [Compound 126]
0.01 to 0.1	COC(=O)N1CCc2ccc3c(nc([C@H]4CCC[C@H](C(=O)O)C4)n3Cc3cccc(Cl)n3)c2C1 [Compound 225]
0.1 to 1	COC(=O)N1CCc2ccc3c(nc([C@H]4CC[C@H](C(=O)O)CC4)n3[C@H](C)Cc3ccccc3Cl)c2C1 [Compound 297]
0.1 to 1	COC(=O)N1CCc2ccc3c(nc([C@H]4CC[C@H](C(=O)O)CC4)n3[C@@H]3CCc4ccccc4C3)c2C1 [Compound 335]
0.1 to 1	COC(=O)N1CCc2ccc3c(nc([C@H]4CC[C@H](C(=O)O)CC4)n3[C@H](C)Cn3ncc4ccccc43)c2C1 [Compound 311]
0.01 to 0.1	COC(=O)N1CCc2ccc3c(nc([C@H]4CC[C@H](C(=O)O)CC4)n3[C@@H](C)C[C@@H]3CCCOC3)c2C1 [Compound 183]
0.001 to 0.01	COC(=O)N1CCc2ccc3c(nc(N4CCN(C(=O)CO)CC4)n3[C@@H](C)Cc3ccccc3)c2C1 [Compound 164]
0.01 to 0.1	COC(=O)N1CCc2ccc3c(nc(C4CCCCC4)n3[C@@H](C)C[C@H]3CC[C@@H](C(=O)O)CC3)c2C1 [Compound 274]
0.1 to 1	COC(=O)N1CCc2ccc3c(nc(C4CS(=O)(=O)C4)n3CCc3ccccc3)c2C1 [Compound 342]
0.01 to 0.1	COC(=O)N1CCc2ccc3c(nc([C@H]4CC[C@](C)(C(=O)O)CC4)n3[C@@H](C)Cn3cc(Cl)cn3)c2C1 [Compound 231]

IC50 [µM]	Compound
0.001 to 0.01	COC(=O)N1CCc2ccc3c(nc([C@H]4CC[C@H](C(=O)O)CC4)n3[C@@H](C)Cc3ccc(F)c(OC)c3)c2C1 [Compound 43]
0.001 to 0.01	COC(=O)N1CCc2ccc3c(nc(C4CCCCC4)n3CC[C@H]3CCC[C@H](C(=O)O)C3)c2C1 [Compound 172]
0.01 to 0.1	COC(=O)N1CCc2ccc3c(nc(C4CCCCC4)n3C[C@@H](C(=O)O)C3CCCCC3)c2C1 [Compound 281]
0.1 to 1	COC(=O)N1CCc2ccc3c(nc([C@H]4CC[C@](C)(C(=O)O)CC4)n3[C@H](C)Cc3ccccc3)c2C1 [Compound 333]
0.01 to 0.1	COC(=O)N1CCc2ccc3c(nc([C@H]4CC[C@@H](C(=O)O)CC4)n3[C@@H](C)Cc3ccccc3)c2C1 [Compound 230]
0.01 to 0.1	COC(=O)N1CCc2ccc3c(nc(C4CCCC4)n3C[C@@H](C(=O)O)c3ccccc3)c2C1 [Compound 205]
0.001 to 0.01	COC(=O)N1CCc2ccc3c(nc(C4CCCCC4)n3[C@H](C)C[C@H]3CC[C@@H](C(=O)O)CC3)c2C1 [Compound 142]
0.1 to 1	COC(=O)N1CCc2ccc3c(nc(N4CCN(S(C)(=O)=O)CC4)n3[C@H](C)Cn3cc(Cl)cn3)c2C1 [Compound 343]
0.1 to 1	COC(=O)N1CCc2ccc3c(nc([C@H]4C[C@@H](C(=O)O)C4)n3[C@H](C)Cc3ccccc3C)c2C1 [Compound 340]
0.01 to 0.1	COC(=O)N1CCc2ccc3c(nc([C@H]4CC[C@](C)(C(=O)O)CC4)n3[C@@H](CO)Cc3ccccc3)c2C1 [Compound 270]
0.001 to 0.01	COC(=O)N1CCc2ccc3c(nc(-c4cccc([C@](C)(O)C(=O)O)c4)n3[C@H](C)Cc3ccccc3)c2C1 [Compound 140]
0.1 to 1	COC(=O)N1CCc2c(C(=O)O)cc3c(nc(C4CCCCC4)n3[C@H](C)Cc3ccccc3)c2C1 [Compound 300]
0.001 to 0.01	COC(=O)N1CCc2ccc3c(nc([C@H]4CCCOC4)n3C[C@H](C(=O)O)c3ccccc3)c2C1 [Compound 89]
0.001 to 0.01	COC(=O)N1CCc2ccc3c(nc(C4CCCCC4)n3C[C@H](C(=O)O)c3ccc(F)c(OC)c3)c2C1 [Compound 9]
0.001 to 0.01	COC(=O)N1CCc2ccc3c(nc(N4CCC[C@@H](C(=O)O)C4)n3C[C@@H](C)c3ccccc3)c2C1 [Compound 165]
0.01 to 0.1	COC(=O)N1CCc2ccc3c(nc(C4CCCCC4)n3[C@H](C)C[C@@H]3CCCC[C@H]3C(=O)O)c2C1 [Compound 251]
0.1 to 1	COC(=O)N1CCc2ccc3c(nc(-c4cccc(C(C)(C)C(=O)O)c4)n3[C@H](C)Cn3cc(Cl)cn3)c2C1 [Compound 320]
0.001 to 0.01	COC(=O)N1CCc2ccc3c(nc([C@H]4CC[C@H](C(=O)O)CC4)n3[C@H](C)C[C@H]3CC[C@@H](OC)CC3)c2C1 [Compound 68]
0.001 to 0.01	COC(=O)N1CCc2ccc3c(nc(-c4cccc(CC(=O)O)c4)n3[C@@H](C)Cc3ccccc3)c2C1 [Compound 101]
0.001 to 0.01	COC(=O)N1CCc2ccc3c(nc(C4CCC(C(=O)O)CC4)n3CCc3ccccc3)c2C1 (stereo not shown) [Compound 84]
0.1 to 1	COC(=O)N1CCc2ccc3c(nc(C4CCN(S(C)(=O)=O)CC4)n3[C@H](C)Cc3cccc(C(=O)O)c3)c2C1 [Compound 331]
0.01 to 0.1	COC(=O)N1CCc2c(C(=O)O)cc3c(nc(N4CCCCC4)n3C[C@H](C)c3ccccc3)c2C1 [Compound 247]
0.001 to 0.01	COC(=O)N1CCc2ccc3c(nc(N4CCN(S(C)(=O)=O)CC4)n3[C@@H](C)Cc3ccccc3)c2C1 [Compound 80]
0.001 to 0.01	COC(=O)N1CCc2c([C@@H]3CCOC3)cc3c(nc([C@H]4CC[C@H](C(=O)O)CC4)n3[C@H](C)Cc3ccccc3)c2C1 [Compound 44]
0.001 to 0.01	COC(=O)N1CCc2ccc3c(nc(C4CCCCC4)n3CCc3ccccc3C(=O)O)c2C1 [Compound 137]
0.001 to 0.01	COC(=O)N1CCc2ccc3c(nc([C@H]4CCC[C@@H](C(=O)O)C4)n3[C@H](C)Cc3ccccc3)c2C1 (single isomer, unassigned) [Compound 12]
0.1 to 1	COC(=O)N1CCc2ccc3c(nc(-c4ccc(C(C)(C)C(=O)O)cc4)n3[C@H](C)Cn3cc(Cl)cn3)c2C1 [Compound 327]
